Test results published in US20240208909A1, “SUBSTITUTED QUINOLINE DERIVATIVES HAVING SOS1 INHIBITION ACTIVITIES AND USES THEREOF” (Accutar Biotechnology Inc., priority 2022, published 2024).

What was measured:
SOS1/KRAS-G12D = SOS1/KRAS-G12D (Homo sapiens (Human), UniProt Q07889); assay: SOS1/KRAS-G12D binding inhibition assay (AlphaScreen); settings: GST-SOS1 and 6*His KRAS-G12D, read-out: KrasG12D/SOS1 binding IC50
Method: Example 22: SOS1/KRAS-G12D Binding Inhibition Assay
SOS1 binding affinity of candidate compounds was measured by monitoring the interaction of SOS1 with KRAS-G12D in the presence of the test compound. Briefly, 5 nM GST tagged SOS1 proteins (final concentration) were pre-incubated with 50 nM 6*His tagged KRAS-G12D proteins (final concentration) in an assay buffer containing 10 mM HEPES, pH 7.4, 150 mM NaCl, 1 mM DTT, 5 mM MgCl2, 0.1% Tween-20, and 0.05% BSA for 30 minutes. The test compounds in 2% DMSO (final concentration) at various concentrations were then added to the reaction mixture and incubated for another 30 minutes at 4° C. 5 ug/ml GSH AlphaScreen donor beads (PerkinElmer, 6765300) and 5 ug/ml nickel chelate (Ni-NTA) AlphaScreen acceptor beads (PerkinElmer, 6760619C) (final concentrations) were then added to the mixture. After an incubation of 2 hours at 4° C., the fluorescent signals were obtained on the EnVision® 2105 Multilabel Plate Reader (PerkinElmer).
Raw AlphaScreen data were converted to a percentage of inhibition (relative to DMSO) using the following equations: • a) For a given test compound concentration X:
Signal (X)=Signal (SOS1 & KRAS-G12D & compound)-Signal (buffer & KRAS-G12D & compound)
Percentage of inhibition at concentration X=[1−Signal (X)/Signal (DMSO)]*100% b)
The IC50 values were determined by nonlinear regression of plots of [inhibitor] vs. percentage of inhibition with variable slope, analyzed using GraphPad Prism 9.

K562 cells = assay: Cell growth inhibition of K562 cells (CellTiter-Glo); format: cell-based; settings: Homo sapiens, 120 h, 5 days
Method: Example 24: Cell Growth Inhibition of K562 Cells
K562 cells were obtained from American Type Culture Collection (ATCC). For cell growth assay, K562 cells were seeded in 96-well plates at 1000 cells/well in 90 μl of RPM11640 growth medium containing 10% FBS and 1% Penicillin Streptomycin, and then incubated at 37° C. for 1 hour. The test compound was administered to the cells by using 1000× compound stock solution prepared in DMSO at various concentrations. 1000× compound stock solution was first diluted in culturing medium to 10×, then 10 uL compound medium was added to each well in the cell plates. After administration of the compound, the cells were then incubated at 37° C. for 5 days. Upon completion, the plates were equilibrated at room temperature for approximately 10 minutes. 100 ul of CellTiter-Glo® Reagent (Promega) was added to each well. The plates were then incubated at room temperature for 10 minutes and luminescence was recorded by EnSpire plate reader (PerkinElmer).

[1] = test system: Phospho-ERK1/2 in DLD1 cells; assay: Phospho-ERK1/2 expression inhibition in DLD1 cells; format: cell-based; settings: Homo sapiens, DLD-1, 4 hours, read-out: DLD1 pERK IC50
Method: Example 23: Phospho-ERK1/2 Expression Inhibition in DLD1 Cells
DLD1 cells were obtained from American Type Culture Collection (ATCC). DLD1 cells were plated in 96-well plates (VWR #10062-900, or Corning #3904) in 90 uL culture medium at a density of 15,000 cells/well in the RPM11640 growth medium containing 10% FBS and 1% Penicillin Streptomycin, and then incubated at 37° C. overnight. The following day, the test compound was administered to the cells by using 1000×x compound stock solution prepared in DMSO at various concentrations. 1000× compound stock solution was first diluted in culturing medium to 10×, then 10 uL compound medium was added to each well in the cell plates. After administration of the compound, the cells were then incubated at 37° C. for 4 hours. Upon completion, the cells were washed with PBS briefly. 150 uL/well of 4% formaldehyde was added and the plates were incubated at room temperature for 20 mins. The cells were washed with PBS briefly, and permeabilized with 150 uL/well of ice cold 100% methanol for 10 mins. The cells were washed with PBS briefly and blocked with 100 uL/well LI-COR blocking buffer for 1 hr at room temperature with gentle shaking. The cells were incubated overnight at 4° C. with 50 uL primary antibody rabbit anti-Phospho-ERK1/2 (1: 500, Cell Signaling, #4370) diluted in Intercept Blocking Buffer (LI-COR, #927-60001) containing 0.1% Tween 20. The next day, the cells were washed with 200 uL PBS containing 0.1% Tween 20, 5×5 mins at room temperature with gentle shaking, and incubated with 50 uL secondary antibody, IRDye® 800CW Goat anti-Rabbit IgG (LI-COR, #926-32211), 1:1000, in LI-COR blocking buffer with 0.2% Tween 20 for 1 hr at room temperature with gentle shaking. The cells were washed with 200 uL PBS containing 0.1% Tween 20, 5×5 mins at room temperature with gentle shaking. The cells were washed with PBS for 5 mins. 100 uL fresh PBS was added to each well and the plates were imaged on a LI-COR Odyssey CLX plate reader.

Chain of SOS1/KRAS-G12D (Q07889 564-1049 limits assumed): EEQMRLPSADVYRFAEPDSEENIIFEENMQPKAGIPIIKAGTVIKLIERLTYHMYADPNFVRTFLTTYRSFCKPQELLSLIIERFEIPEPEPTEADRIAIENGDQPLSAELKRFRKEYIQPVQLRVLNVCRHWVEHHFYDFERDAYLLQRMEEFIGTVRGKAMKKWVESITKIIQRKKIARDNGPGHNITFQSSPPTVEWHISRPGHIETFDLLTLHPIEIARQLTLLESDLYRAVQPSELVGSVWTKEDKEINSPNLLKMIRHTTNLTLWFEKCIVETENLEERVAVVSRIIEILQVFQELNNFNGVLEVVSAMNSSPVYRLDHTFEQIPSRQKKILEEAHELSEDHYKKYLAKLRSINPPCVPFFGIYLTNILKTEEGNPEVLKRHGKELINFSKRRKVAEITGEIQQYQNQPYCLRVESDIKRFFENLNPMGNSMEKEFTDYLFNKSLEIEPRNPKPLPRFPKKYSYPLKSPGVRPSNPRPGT

SMILES	IC50 (SOS1/KRAS-G12D) [nM]	GI50 (K562 cells) [nM]	IC50 [1] [nM]
CC(=O)N1CC[C@@](F)(c2ccc3nccc(N[C@H](C)c4cccc(C(F)F)c4F)c3c2)C1 [Compound 86, 1-((R)-3-(4-(((R)-1-(3-(difluoromethyl)-2-fluorophenyl)ethyl)amino)quinolin-6-yl)-3-fluoropyrrolidin-1-yl)ethan-1-one]	> 100	> 500	
CC(=O)N1CCN(c2ccc3nccc(N[C@H](C)c4cccc(C(F)(F)F)c4C)c3c2)C[C@@H]1C [Compound 33, 1-((S)-2-methyl-4-(4-(((R)-1-(2-methyl-3-(trifluoromethyl)phenyl)ethyl)amino)quinolin-6-yl)piperazin-1-yl)ethan-1-one]	> 100	100 to 500	> 500
COC1(c2ccc3nccc(N[C@H](C)c4cccc(C(F)(F)F)c4C)c3c2)CCN(C(=O)C(C)C)CC1 [Compound 80, (R)-1-(4-methoxy-4-(4-((1-(2-methyl-3-(trifluoromethyl)phenyl)ethyl)amino)quinolin-6-yl)piperidin-1-yl)-2-methylpropan-1-one]	10 to 100	100 to 500	> 500
COC1(c2ccc3nccc(N[C@H](C)c4cccc(C(F)(F)F)c4C)c3c2)CCN(C(=O)CC#N)CC1 [Compound 77, (R)-3-(4-methoxy-4-(4-((1-(2-methyl-3-(trifluoromethyl)phenyl)ethyl)amino)quinolin-6-yl)piperidin-1-yl)-3-oxopropanenitrile]	10 to 100	> 500	150 to 500
[2H]C([2H])([2H])O[C@@]1(c2ccc3nccc(N[C@H](C)c4cccc(C(F)F)c4F)c3c2)CCN(C(C)=O)C1 [Compound 94, 1-((R)-3-(4-(((R)-1-(3-(difluoromethyl)-2-fluorophenyl)ethyl)amino)quinolin-6-yl)-3-(methoxy-d3)pyrrolidin-1-yl)ethan-1-one]		≤ 100	≤ 150
CC(=O)N1CCN(c2ccc3nccc(N[C@H](C)c4cccc(C(F)(F)F)c4C)c3c2)[C@H](C)C1 [Compound 67, 1-((R)-3-methyl-4-(4-(((R)-1-(2-methyl-3-(trifluoromethyl)phenyl)ethyl)amino)quinolin-6-yl)piperazin-1-yl)ethan-1-one]		> 500	> 500
Cc1c([C@@H](C)Nc2c(C#N)cnc3ccc(N4CCNCC4)cc23)cccc1C(F)(F)F [Compound 2, (R)-4-((1-(2-methyl-3-(trifluoromethyl)phenyl)ethyl)amino)-6-(piperazin-1-yl)quinoline-3-carbonitrile]	> 100	> 500	
Cc1c([C@@H](C)Nc2ccnc3ccc(N4CCNC[C@H]4C)cc23)cccc1C(F)(F)F [Compound 68, N-((R)-1-(2-methyl-3-(trifluoromethyl)phenyl)ethyl)-6-((R)-2-methylpiperazin-1-yl)quinolin-4-amine]		> 500	> 500
[2H]C([2H])([2H])O[C@]1(c2ccc3nccc(N[C@H](C)c4cccc(C(F)F)c4F)c3c2)CCN(C(C)=O)C1 [Compound 93, 1-((S)-3-(4-(((R)-1-(3-(difluoromethyl)-2-fluorophenyl)ethyl)amino)quinolin-6-yl)-3-(methoxy-d3)pyrrolidin-1-yl)ethan-1-one]		≤ 100	≤ 150
Cc1c([C@@H](C)Nc2ccnc3ccc(N4CCOCC4)cc23)cccc1C(F)(F)F [Compound 37, (R)-N-(1-(2-methyl-3-(trifluoromethyl)phenyl)ethyl)-6-morpholinoquinolin-4-amine]		100 to 500	150 to 500
Cc1c([C@@H](C)Nc2ccnc3ccc(N4CCNCC4)cc23)cccc1C(F)(F)F [Compound 5, (R)-N-(1-(2-methyl-3-(trifluoromethyl)phenyl)ethyl)-6-(piperazin-1-yl)quinolin-4-amine]	10 to 100	> 500	
CC(=O)N[C@@H]1CCN(c2ccc3ncc(C#N)c(N[C@H](C)c4cccc(C(F)F)c4F)c3c2)C1 [Compound 7, N-((R)-1-(3-cyano-4-(((R)-1-(3-(difluoromethyl)-2-fluorophenyl)ethyl)amino)quinolin-6-yl)pyrrolidin-3-yl)acetamide]	> 100	> 500	
